Test results from PMC6121530, “Synthesis, Biological Evaluation and Molecular Docking of Novel Indole-Aminoquinazoline Hybrids for Anticancer Properties” (International Journal of Molecular Sciences, 2018).

Target: T1, epidermal growth factor receptor tyrosine kinase (EGFR-TK) (Homo sapiens, UniProt P00533)
T1 construct: purified Epidermal Growth Factor Receptor (Sigma-Aldrich)
Experiment: ELISA kinase inhibition assay with purified EGFR
Type: biochemical

T1 sequence (P00533 25-1210): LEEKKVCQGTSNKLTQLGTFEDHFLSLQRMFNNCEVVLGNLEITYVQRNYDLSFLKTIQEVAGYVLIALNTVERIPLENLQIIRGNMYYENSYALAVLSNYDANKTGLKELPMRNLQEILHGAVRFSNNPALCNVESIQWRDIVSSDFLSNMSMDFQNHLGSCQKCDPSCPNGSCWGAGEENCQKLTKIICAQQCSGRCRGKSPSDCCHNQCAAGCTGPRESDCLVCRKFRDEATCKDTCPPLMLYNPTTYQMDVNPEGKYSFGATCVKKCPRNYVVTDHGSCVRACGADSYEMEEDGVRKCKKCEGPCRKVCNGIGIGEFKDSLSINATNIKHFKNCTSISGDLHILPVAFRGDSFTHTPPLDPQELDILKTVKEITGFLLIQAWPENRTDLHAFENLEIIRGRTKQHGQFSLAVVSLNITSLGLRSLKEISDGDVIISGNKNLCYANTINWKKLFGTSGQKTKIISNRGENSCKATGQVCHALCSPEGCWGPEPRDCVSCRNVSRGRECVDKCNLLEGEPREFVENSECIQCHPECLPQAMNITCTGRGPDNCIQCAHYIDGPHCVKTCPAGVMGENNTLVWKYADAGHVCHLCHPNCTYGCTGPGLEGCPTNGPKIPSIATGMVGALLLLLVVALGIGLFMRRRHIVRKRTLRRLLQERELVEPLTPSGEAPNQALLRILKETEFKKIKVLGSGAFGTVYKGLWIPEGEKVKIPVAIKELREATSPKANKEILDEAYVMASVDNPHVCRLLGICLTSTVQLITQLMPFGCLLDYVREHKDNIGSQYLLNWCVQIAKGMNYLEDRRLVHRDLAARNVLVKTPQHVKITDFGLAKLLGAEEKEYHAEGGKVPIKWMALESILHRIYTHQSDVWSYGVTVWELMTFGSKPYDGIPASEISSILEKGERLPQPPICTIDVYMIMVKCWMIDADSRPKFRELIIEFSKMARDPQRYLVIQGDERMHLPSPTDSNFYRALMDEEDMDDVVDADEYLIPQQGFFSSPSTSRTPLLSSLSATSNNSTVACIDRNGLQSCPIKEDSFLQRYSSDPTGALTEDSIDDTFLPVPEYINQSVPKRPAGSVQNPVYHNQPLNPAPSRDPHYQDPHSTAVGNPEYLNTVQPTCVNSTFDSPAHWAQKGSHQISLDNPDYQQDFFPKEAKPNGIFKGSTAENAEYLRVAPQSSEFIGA

IC50: 52.5 nM
Compound: Fc1ccc(-c2nc(Nc3cc(Br)cc4cc(-c5ccc(F)cc5)[nH]c34)c3ccccc3n2)cc1 [4f, N-(5-Bromo-2-(4-fluorophenyl)-1H-indol-7-yl)-2-(4-fluorophenyl)quinazolin-4-amine]
